Results taken from article PMC8491554 (Journal of agricultural and food chemistry, 2021).

Tests used:
SARS-CoV-2 Mpro [1] = molecular target: T1, SARS-CoV-2 Mpro (Severe acute respiratory syndrome coronavirus 2, UniProt P0DTD1); experiment: biochemical; conditions: for inhibition at 2 µM / inhibition at 10 µM / inhibition at 50 µM: read-out: inhibition of SARS-CoV-2 Mpro enzyme activity (inhibition rate)
SARS-CoV-2 Mpro [2] = molecular target: T1, SARS-CoV-2 Mpro; format: binding; conditions: for SPR response units (RUs) in sensorgrams, up to: highest response in SPR sensorgrams; for binding capacity in SPR sensorgrams (in words): Supporting Information

| Compound | inhibition at 2 µM (SARS-CoV-2 Mpro [1]) [%] | inhibition at 10 µM (SARS-CoV-2 Mpro [1]) [%] | inhibition at 50 µM (SARS-CoV-2 Mpro [1]) [%] | SPR response units (RUs) in sensorgrams, up to (SARS-CoV-2 Mpro [2]) | further results |
| --- | --- | --- | --- | --- | --- |
| O=C1O[C@H]2[C@@H]3OC(=O)c4cc(O)c(O)c(O)c4-c4c(O)c(O)c5oc(=O)c6c(c(O)c(O)c7oc(=O)c4c5c76)-c4c(cc(O)c(O)c4O)C(=O)OC[C@H]3OC(O)[C@@H]2OC(=O)c2cc(O)c(O)c(O)c2-c2c1cc(O)c(O)c2O (mixture of isomers) [PA, punicalagin] | 2 | 59 | 100 |  |  |
| O=c1oc2c(O)c(O)cc3c(=O)oc4c(O)c(O)cc1c4c23 [EA, ellagic acid] | 3 | 28 | 57 |  |  |
| O=C(O)c1cc(O)c(O)c(O)c1 [GLA, gallic acid] |  |  |  | up to 30 RU |  |
| O=C(OC[C@H]1O[C@@H](OC(=O)c2cc(O)c(O)c(O)c2)[C@H](OC(=O)c2cc(O)c(O)c(O)c2)[C@@H](OC(=O)c2cc(O)c(O)c(O)c2)[C@@H]1OC(=O)c1cc(O)c(O)c(O)c1)c1cc(O)c(O)c(O)c1 [PGG, 1,2,3,4,6-penta-O-galloyl-ß-D-glucose] | 14 | 73 | 100 | ≤ 1186 RU |  |
| Oc1cccc(O)c1O [PYG, pyrogallol] | 20 |  |  |  | reference binding signal (SARS-CoV-2 Mpro [2]; CM5 sensor chip): less than 10%; reference signal (reference binding RUs over binding level RUs) (SARS-CoV-2 Mpro [2]; PEG sensor chip): 64% |
| O=C(OC[C@H]1O[C@@H](OC(=O)c2cc(O)c(O)c(OC(=O)c3cc(O)c(O)c(O)c3)c2)[C@H](OC(=O)c2cc(O)c(O)c(OC(=O)c3cc(O)c(O)c(O)c3)c2)[C@@H](OC(=O)c2cc(O)c(O)c(OC(=O)c3cc(O)c(O)c(O)c3)c2)[C@@H]1OC(=O)c1cc(O)c(O)c(OC(=O)c2cc(O)c(O)c(O)c2)c1)c1cc(O)c(O)c(OC(=O)c2cc(O)c(O)c(O)c2)c1 [TA, tannic acid] |  |  |  | up to 643 RU | inhibition of SARS-CoV-2 Mpro enzyme activity (inhibition rate) (SARS-CoV-2 Mpro [1]; 2 μM): 13%; inhibition of SARS-CoV-2 Mpro enzyme activity (inhibition rate) (SARS-CoV-2 Mpro [1]; 10 μM): 73%; inhibition of SARS-CoV-2 Mpro enzyme activity (inhibition rate) (SARS-CoV-2 Mpro [1]; 50 μM): 100% |
| O=c1oc2cc(O)ccc2c2ccc(O)cc12 [UA, urolithin A] |  |  |  |  | binding capacity in SPR sensorgrams (in words) (SARS-CoV-2 Mpro [2]): undetectable binding capacity |
| O=c1oc2cc(O)ccc2c2ccccc12 [UB, urolithin B] |  |  |  | < 10 RU | binding capacity in SPR sensorgrams (in words) (SARS-CoV-2 Mpro [2]): weak binding capacity |
| O=c1c(O)c(-c2ccc(O)c(O)c2)oc2cc(O)cc(O)c12 [quercetin, reference compound] |  |  |  | up to 103 RU |  |
